Source: PubChem BioAssay AID602339 (The Scripps Research Institute Molecular Screening Center, 2012)
The source made the active and inactive calls. No rule for the calls is given here.

What was measured:
Test in all cases: off-target hydrolase engagement by SILAC proteomics – cell-based, ABPP-SILAC, LC-MS, selectivity assay for DAGLb inhibitor project, late-stage follow-up (AID 602339)
Abhd11 = conditions: mouse cells, active compounds read low
Abhd12 = conditions: mouse cells, active compounds read low
Abhd4 = Abhd4 (UniProt Q8VD66); conditions: mouse cells, active compounds read low
Chain of Abhd4 (Q8VD66 whole entry, looked up): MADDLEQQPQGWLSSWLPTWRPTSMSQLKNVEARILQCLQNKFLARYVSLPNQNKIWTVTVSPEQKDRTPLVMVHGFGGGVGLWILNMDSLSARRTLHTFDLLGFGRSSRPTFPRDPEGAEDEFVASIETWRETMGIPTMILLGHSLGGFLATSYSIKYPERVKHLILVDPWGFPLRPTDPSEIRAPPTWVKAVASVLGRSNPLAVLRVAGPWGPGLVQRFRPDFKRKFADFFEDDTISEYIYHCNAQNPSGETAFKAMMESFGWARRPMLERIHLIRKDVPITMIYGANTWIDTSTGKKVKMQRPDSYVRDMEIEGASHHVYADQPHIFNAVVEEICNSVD

Ache = conditions: mouse cells, active compounds read low
Acot2 = conditions: mouse cells, active compounds read low
[1] = biological target: Acyl-protein thioesterase 1 (Mus musculus) (UniProt P97823); conditions: mouse cells, Lypla1, active compounds read low
Chain of Acyl-protein thioesterase 1 (Mus musculus) (P97823 whole entry, looked up): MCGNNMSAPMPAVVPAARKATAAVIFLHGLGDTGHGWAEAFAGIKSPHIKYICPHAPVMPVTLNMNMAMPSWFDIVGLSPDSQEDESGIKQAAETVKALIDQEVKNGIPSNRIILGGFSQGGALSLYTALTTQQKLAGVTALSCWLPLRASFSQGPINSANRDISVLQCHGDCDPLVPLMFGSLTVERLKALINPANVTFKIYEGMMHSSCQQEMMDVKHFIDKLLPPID

Apeh = conditions: mouse cells, active compounds read low
Bat5 = conditions: mouse cells, active compounds read low
Ctsa = conditions: mouse cells, active compounds read low
D230012E17Rik = conditions: mouse cells, active compounds read low
Ddhd1 = conditions: mouse cells, active compounds read low
[2] = biological target: Diacylglycerol lipase-beta (Mus musculus) (UniProt Q91WC9); conditions: mouse cells, Daglb, active compounds read low
Chain of Diacylglycerol lipase-beta (Mus musculus) (Q91WC9 whole entry, looked up): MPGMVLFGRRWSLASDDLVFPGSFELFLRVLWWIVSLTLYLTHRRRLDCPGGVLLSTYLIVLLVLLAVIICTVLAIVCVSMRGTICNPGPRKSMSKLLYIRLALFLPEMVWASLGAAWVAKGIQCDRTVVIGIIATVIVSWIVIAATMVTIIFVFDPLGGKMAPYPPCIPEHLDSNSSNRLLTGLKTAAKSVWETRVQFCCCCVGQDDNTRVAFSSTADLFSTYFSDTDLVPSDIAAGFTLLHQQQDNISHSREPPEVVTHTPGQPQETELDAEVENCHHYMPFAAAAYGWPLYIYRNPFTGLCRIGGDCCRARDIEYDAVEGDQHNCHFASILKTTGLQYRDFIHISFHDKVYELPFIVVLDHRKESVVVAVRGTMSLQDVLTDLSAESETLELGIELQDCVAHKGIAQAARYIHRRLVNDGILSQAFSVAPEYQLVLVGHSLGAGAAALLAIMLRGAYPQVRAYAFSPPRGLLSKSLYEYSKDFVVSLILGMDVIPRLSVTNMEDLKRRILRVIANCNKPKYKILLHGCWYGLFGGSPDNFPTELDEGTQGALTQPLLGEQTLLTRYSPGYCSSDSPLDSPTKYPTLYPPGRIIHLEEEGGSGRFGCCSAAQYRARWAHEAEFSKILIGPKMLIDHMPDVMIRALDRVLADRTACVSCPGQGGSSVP

Dpp7 = conditions: mouse cells, active compounds read low
Dpp9 = conditions: mouse cells, active compounds read low
Esd = conditions: mouse cells, active compounds read low
Faah = conditions: mouse cells, active compounds read low
Fam108b = conditions: mouse cells, active compounds read low
Fam108c = conditions: mouse cells, active compounds read low
Fasn = conditions: mouse cells, active compounds read low
Htra2 = conditions: mouse cells, active compounds read low
Iah1 = conditions: mouse cells, active compounds read low
Kiaa1363 = conditions: mouse cells, active compounds read low
Lactb = conditions: mouse cells, active compounds read low
Lipe = conditions: mouse cells, active compounds read low
Lonp1 = conditions: mouse cells, active compounds read low
Lypla2 = conditions: mouse cells, active compounds read low
Lypla3 = conditions: mouse cells, active compounds read low
Lyplal1 = conditions: mouse cells, active compounds read low
[3] = biological target: Monoacylglycerol lipase ABHD6 (Mus musculus) (UniProt Q8R2Y0); conditions: mouse cells, active compounds read low
Chain of Monoacylglycerol lipase ABHD6 (Mus musculus) (Q8R2Y0 whole entry, looked up): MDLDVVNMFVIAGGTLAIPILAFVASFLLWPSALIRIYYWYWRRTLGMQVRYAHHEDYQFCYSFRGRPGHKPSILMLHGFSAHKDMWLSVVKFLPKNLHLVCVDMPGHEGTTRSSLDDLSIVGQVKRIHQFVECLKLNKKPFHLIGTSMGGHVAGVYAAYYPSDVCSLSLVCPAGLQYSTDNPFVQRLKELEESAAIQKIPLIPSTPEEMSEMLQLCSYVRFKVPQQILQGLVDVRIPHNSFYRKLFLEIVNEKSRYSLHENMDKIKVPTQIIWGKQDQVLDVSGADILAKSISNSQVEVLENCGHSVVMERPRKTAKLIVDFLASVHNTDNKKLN

Pafah1b2 = conditions: mouse cells, active compounds read low
Pafah1b3 = conditions: mouse cells, active compounds read low
[4] = biological target: Palmitoyl-protein thioesterase ABHD10, mitochondrial (Mus musculus) (UniProt Q6PE15); conditions: mouse cells, active compounds read low
Chain of Palmitoyl-protein thioesterase ABHD10, mitochondrial (Mus musculus) (Q6PE15 whole entry, looked up): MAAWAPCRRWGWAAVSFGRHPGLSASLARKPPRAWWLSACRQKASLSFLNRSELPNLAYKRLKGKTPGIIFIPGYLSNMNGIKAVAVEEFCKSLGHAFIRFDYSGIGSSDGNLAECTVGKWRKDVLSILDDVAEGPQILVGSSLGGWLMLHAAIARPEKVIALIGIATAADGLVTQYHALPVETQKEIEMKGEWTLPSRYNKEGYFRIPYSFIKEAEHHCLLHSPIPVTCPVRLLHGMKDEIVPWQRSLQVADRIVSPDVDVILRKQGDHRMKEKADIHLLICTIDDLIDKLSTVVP

Parl = conditions: mouse cells, active compounds read low
[5] = biological target: Platelet-activating factor acetylhydrolase 2, cytoplasmic (Mus musculus) (UniProt Q8VDG7); conditions: mouse cells, Pafah2, active compounds read low
Chain of Platelet-activating factor acetylhydrolase 2, cytoplasmic (Mus musculus) (Q8VDG7 whole entry, looked up): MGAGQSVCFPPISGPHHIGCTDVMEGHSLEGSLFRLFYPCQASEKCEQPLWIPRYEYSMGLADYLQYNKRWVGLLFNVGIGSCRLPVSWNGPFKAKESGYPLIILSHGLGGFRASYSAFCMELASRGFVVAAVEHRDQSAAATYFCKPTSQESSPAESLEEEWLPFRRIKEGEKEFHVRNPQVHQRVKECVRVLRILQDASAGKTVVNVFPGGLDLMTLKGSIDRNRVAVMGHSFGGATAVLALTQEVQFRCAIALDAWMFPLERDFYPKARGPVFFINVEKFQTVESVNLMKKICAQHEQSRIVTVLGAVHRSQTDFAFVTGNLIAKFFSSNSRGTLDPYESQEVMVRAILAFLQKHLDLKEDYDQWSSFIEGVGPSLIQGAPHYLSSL

Plat = conditions: mouse cells, active compounds read low
Pme1 = conditions: mouse cells, active compounds read low
Pnpla6 = conditions: mouse cells, active compounds read low
Pnpla7 = conditions: mouse cells, active compounds read low
Pnpla8 = conditions: mouse cells, active compounds read low
Ppt2 = conditions: mouse cells, active compounds read low
Prepl = conditions: mouse cells, active compounds read low
[6] = biological target: Prolyl endopeptidase (Mus musculus) (UniProt Q9QUR6); conditions: mouse cells, Prep, active compounds read low
Chain of Prolyl endopeptidase (Mus musculus) (Q9QUR6 whole entry, looked up): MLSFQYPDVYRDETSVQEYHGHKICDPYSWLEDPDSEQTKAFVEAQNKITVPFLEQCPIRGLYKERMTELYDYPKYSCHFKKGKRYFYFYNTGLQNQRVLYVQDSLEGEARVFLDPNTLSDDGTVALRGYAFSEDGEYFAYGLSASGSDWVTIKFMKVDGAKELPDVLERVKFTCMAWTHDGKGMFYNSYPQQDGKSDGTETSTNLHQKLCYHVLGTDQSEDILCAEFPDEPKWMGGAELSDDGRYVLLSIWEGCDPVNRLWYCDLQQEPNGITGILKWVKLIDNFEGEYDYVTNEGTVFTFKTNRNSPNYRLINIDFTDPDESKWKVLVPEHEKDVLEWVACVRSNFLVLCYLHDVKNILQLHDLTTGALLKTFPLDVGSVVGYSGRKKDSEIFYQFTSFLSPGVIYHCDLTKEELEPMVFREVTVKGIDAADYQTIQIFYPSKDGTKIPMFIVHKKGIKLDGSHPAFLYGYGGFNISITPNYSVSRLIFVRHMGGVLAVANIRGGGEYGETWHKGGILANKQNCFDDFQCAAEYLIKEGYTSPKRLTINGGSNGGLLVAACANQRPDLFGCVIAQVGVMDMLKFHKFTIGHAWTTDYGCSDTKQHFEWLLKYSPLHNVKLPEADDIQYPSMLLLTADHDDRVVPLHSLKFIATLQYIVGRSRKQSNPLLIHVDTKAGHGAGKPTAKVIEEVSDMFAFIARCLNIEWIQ

Qrsl1 = conditions: mouse cells, active compounds read low
Scpep1 = conditions: mouse cells, active compounds read low
Serhl = conditions: mouse cells, active compounds read low
Tpp2 = conditions: mouse cells, active compounds read low

`COc1ccccc1-c1ccc(-c2cn(C(=O)N3CCCCC3Cc3ccccc3)nn2)cc1` (stereo unspecified) was tested, and the SILAC ratio (treated/control probe labeling) (Abhd11) was 1.41 (inactive), the SILAC ratio (treated/control probe labeling) (Abhd12) was 1.15 (inactive) and the SILAC ratio (treated/control probe labeling) (Abhd4) was 0.96 (inactive). The SILAC ratio (treated/control probe labeling) (Ache) was 1.39 (inactive), the SILAC ratio (treated/control probe labeling) (Acot2) was 1.36 (inactive) and the SILAC ratio (treated/control probe labeling) [1] was 0.93 (inactive). The SILAC ratio (treated/control probe labeling) (Apeh) was 0.97 (inactive), the SILAC ratio (treated/control probe labeling) (Bat5) was 1.33 (inactive) and the SILAC ratio (treated/control probe labeling) (Ctsa) was 1.5 (inactive). For the same compound, the SILAC ratio (treated/control probe labeling) (D230012E17Rik) was 1.19 (inactive), the SILAC ratio (treated/control probe labeling) (Ddhd1) was 0.99 (inactive) and the SILAC ratio (treated/control probe labeling) [2] was 0.11. The SILAC ratio (treated/control probe labeling) (Dpp7) was 1.19 (inactive), the SILAC ratio (treated/control probe labeling) (Dpp9) was 0.94 (inactive) and the SILAC ratio (treated/control probe labeling) (Esd) was 1.13 (inactive). For the same compound, the SILAC ratio (treated/control probe labeling) (Faah) was 1.06 (inactive), the SILAC ratio (treated/control probe labeling) (Fam108b) was 1.16 (inactive) and the SILAC ratio (treated/control probe labeling) (Fam108c) was 1.2 (inactive). The SILAC ratio (treated/control probe labeling) (Fasn) was 1.1 (inactive), the SILAC ratio (treated/control probe labeling) (Htra2) was 1.33 (inactive) and the SILAC ratio (treated/control probe labeling) (Iah1) was 1.06 (inactive). The SILAC ratio (treated/control probe labeling) (Kiaa1363) was 1.32 (inactive), the SILAC ratio (treated/control probe labeling) (Lactb) was 1.17 (inactive) and the SILAC ratio (treated/control probe labeling) (Lipe) was 1.12 (inactive). The SILAC ratio (treated/control probe labeling) (Lonp1) was 1.86 (inactive), the SILAC ratio (treated/control probe labeling) (Lypla2) was 1.01 (inactive) and the SILAC ratio (treated/control probe labeling) (Lypla3) was 0.97 (inactive). For the same compound, the SILAC ratio (treated/control probe labeling) (Lyplal1) was 1.47 (inactive), the SILAC ratio (treated/control probe labeling) [3] was 0.17 and the SILAC ratio (treated/control probe labeling) (Pafah1b2) was 1.03 (inactive). The SILAC ratio (treated/control probe labeling) (Pafah1b3) was 0.99 (inactive), the SILAC ratio (treated/control probe labeling) [4] was 1.02 (inactive) and the SILAC ratio (treated/control probe labeling) (Parl) was 1.07 (inactive). For the same compound, the SILAC ratio (treated/control probe labeling) [5] was 0.98 (inactive), the SILAC ratio (treated/control probe labeling) (Plat) was 2.04 (inactive) and the SILAC ratio (treated/control probe labeling) (Pme1) was 1.08 (inactive). For the same compound, the SILAC ratio (treated/control probe labeling) (Pnpla6) was 1.22 (inactive), the SILAC ratio (treated/control probe labeling) (Pnpla7) was 1.43 (inactive) and the SILAC ratio (treated/control probe labeling) (Pnpla8) was 1.26 (inactive). For the same compound, the SILAC ratio (treated/control probe labeling) (Ppt2) was 1.37 (inactive), the SILAC ratio (treated/control probe labeling) (Prepl) was 1 (inactive) and the SILAC ratio (treated/control probe labeling) [6] was 1 (inactive). For the same compound, the SILAC ratio (treated/control probe labeling) (Qrsl1) was 1.45 (inactive), the SILAC ratio (treated/control probe labeling) (Scpep1) was 1.46 (inactive) and the SILAC ratio (treated/control probe labeling) (Serhl) was 1.38 (inactive). For the same compound, the SILAC ratio (treated/control probe labeling) (Tpp2) was 0.83 (inactive).
